Data on five compounds can be found in article PMC11887051, “Discovery of ONO-2920632 (VU6011887): A Highly Selective and CNS Penetrant TREK-2 (TWIK-Related K+ Channel 2) Preferring Activator In Vivo Tool Compound” (ACS Chemical Neuroscience, 2025).

One series can be described thus: rat PK study. The settings on record: plasma; for clearance: read-out: rat CLp; for Vd: read-out: rat Vss; for half-life: read-out: rat t1/2 (converted). In kind it is in vivo.
A further series concerns the target T1, TREK-1 (Homo sapiens, UniProt O95069).
T1 sequence (O95069 1-426): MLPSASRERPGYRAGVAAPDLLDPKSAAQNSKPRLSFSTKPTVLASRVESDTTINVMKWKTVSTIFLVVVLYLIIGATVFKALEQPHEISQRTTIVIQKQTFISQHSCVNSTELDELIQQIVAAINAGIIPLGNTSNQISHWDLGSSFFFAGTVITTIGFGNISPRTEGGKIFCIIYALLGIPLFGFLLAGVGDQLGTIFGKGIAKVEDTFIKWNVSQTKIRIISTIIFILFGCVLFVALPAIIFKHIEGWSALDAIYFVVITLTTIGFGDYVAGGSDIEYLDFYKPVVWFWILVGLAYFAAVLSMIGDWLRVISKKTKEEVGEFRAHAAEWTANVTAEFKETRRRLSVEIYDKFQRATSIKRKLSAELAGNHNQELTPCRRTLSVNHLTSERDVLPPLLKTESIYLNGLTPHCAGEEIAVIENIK
As to the kind of experiment: TREK-1 thallium flux assay (hTREK-1/CHO). The settings on record: for Emax: % activation relative to 10 µM BL-1249. Also noted: host or cells: CHO. In kind it is cell-based. The method, then:
Procedures for Biological Experiments
TREK-1 and TREK-2 thallium flux assay protocol
CHO cells stably expressing human TREK-1 (hTREK-1/CHO) were constructed at Evotec. […]
hTREK-1/CHO or hTREK-2/HEK were plated in 384-well plates at a density of 1.0x10^4 cells/well or 2.0x10^4 cells/well, respectively, and cultured overnight. After the wash by HBSS + 20 mM HEPES buffer, cells were loaded with Thallos dye for 1 hour at room temperature. After the wash […]
dissolved with HBSS + 20mM HEPES buffer were added to each well. After 10 minutes incubation at room temperature, thallium stimulus buffer were added to each well and the fluorescent intensity are measured by Panoptic. The final thallium concentration was 0.36 mM in […]
TREK-1 or 0.24 mM in TREK-2, respectively. […]

Series [1] is described as follows: mouse plasma protein binding. It is filed as in vitro ADME. The following applies: pH 7.4, read-out: mouse plasma fu. The method, then: In vitro Plasma protein binding and Brain homogenate binding: Determination of fraction unbound (f u) in plasma was conducted in vitro via equilibrium dialysis using HTDialysis (HTD) membrane plates. The top half of the plate was filled with 100 uL of Dubelco’s Phosphate Buffered Saline, pH 7.4 (DPBS). Compounds were diluted into plasma from each species (5 µM final concentration), which was aliquoted in triplicate to the ‘bottom half’ of the prepared HTD plate wells. The HTD plate was sealed and incubated for 6 hours at 37 °C. Following incubation, each well (both top and bottom halves) were transferred (20 µL) to the corresponding wells of a 96-shallow-well (V-bottom) plate. The daughter plates were then matrix-matched (DPBS side wells received equal volume of plasma, and plasma side wells received equal volume of DPBS), and extraction solution (120 µL; acetonitrile containing 50 nM carbamazepine as IS) was added to all wells of both daughter plates to precipitate protein and extract test article. The plates were then sealed and centrifuged (3500 rcf) for 10 minutes at ambient temperature. Supernatant (60 µL) from each well of the daughter plates was then transferred to the corresponding wells of new daughter plates (96-shallow-well, V bottom) containing water (Milli-Q, 60 µL/well), and the plates were sealed in preparation for LC-MS/MS analysis (see LC-MS/MS analysis method below).
The unbound fraction (f u) was calculated following the equation below, and mean values for each species were calculated from 3 replicates. […]
Fraction unbound for both plasma and brain samples was determined using Equation 4.
Equation 4 Determination of fraction unbound in plasma. […]

The nature of series [2]: mouse brain homogenate binding. In kind it is in vitro ADME. The following applies: read-out: mouse brain fu.
The test system of another series is TASK-1. Description: human 86Rb flux K2P selectivity panel. The following applies: 86Rb flux K2P panel. In kind it is cell-based.
In the next series the test system is TASK-2. As to the kind of experiment: human 86Rb flux K2P selectivity panel. The following applies: 86Rb flux K2P panel. It is filed as cell-based.
The test system of the next series is TASK-3. Description: human 86Rb flux K2P selectivity panel. It is filed as cell-based. The settings on record: 86Rb flux K2P panel.
A further series deals with TRAAK. Description: human 86Rb flux K2P selectivity panel. The settings on record: 86Rb flux K2P panel. In kind it is cell-based.
The test system of another series is TWIK-2. Description: human 86Rb flux K2P selectivity panel. The settings on record: 86Rb flux K2P panel. It is filed as cell-based.
In another series the target is T2, TRESK (Homo sapiens, UniProt Q7Z418).
T2 sequence (Q7Z418 1-384): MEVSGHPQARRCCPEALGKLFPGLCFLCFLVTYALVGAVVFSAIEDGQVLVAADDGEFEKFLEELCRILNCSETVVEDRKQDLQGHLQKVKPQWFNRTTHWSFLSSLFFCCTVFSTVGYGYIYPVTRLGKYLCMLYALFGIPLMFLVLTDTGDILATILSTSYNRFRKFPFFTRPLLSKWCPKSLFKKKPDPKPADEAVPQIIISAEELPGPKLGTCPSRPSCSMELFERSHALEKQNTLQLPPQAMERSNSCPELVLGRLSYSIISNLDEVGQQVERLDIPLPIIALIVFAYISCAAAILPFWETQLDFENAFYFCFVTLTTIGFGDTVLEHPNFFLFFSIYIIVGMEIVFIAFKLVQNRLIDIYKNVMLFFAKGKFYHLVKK
As to the kind of experiment: human 86Rb flux K2P selectivity panel. It is filed as cell-based. The following applies: 86Rb flux K2P panel; for activity at TRESK: data is not shown.

Another series concerns the target Adenosine A3 (Homo sapiens, UniProt P0DMS8). As to the kind of experiment: Eurofins Lead Profiling radioligand binding. The following applies: title: 30 μM.
The next series addresses Bradykinin B1 (Homo sapiens, UniProt P46663). Description: Eurofins Lead Profiling radioligand binding. The settings on record: title: 30 μM.
The test system of series [3] is Calcium Channel L-Type, Benzothiazepine. As to the kind of experiment: Eurofins Lead Profiling radioligand binding. Also noted: species or system Rat. The settings on record: title: 30 μM.
In another series the target is Cannabinoid CB1 (Homo sapiens, UniProt P21554). Description: Eurofins Lead Profiling radioligand binding. The following applies: title: 30 μM.
Cannabinoid CB1, sequence (P21554 whole entry): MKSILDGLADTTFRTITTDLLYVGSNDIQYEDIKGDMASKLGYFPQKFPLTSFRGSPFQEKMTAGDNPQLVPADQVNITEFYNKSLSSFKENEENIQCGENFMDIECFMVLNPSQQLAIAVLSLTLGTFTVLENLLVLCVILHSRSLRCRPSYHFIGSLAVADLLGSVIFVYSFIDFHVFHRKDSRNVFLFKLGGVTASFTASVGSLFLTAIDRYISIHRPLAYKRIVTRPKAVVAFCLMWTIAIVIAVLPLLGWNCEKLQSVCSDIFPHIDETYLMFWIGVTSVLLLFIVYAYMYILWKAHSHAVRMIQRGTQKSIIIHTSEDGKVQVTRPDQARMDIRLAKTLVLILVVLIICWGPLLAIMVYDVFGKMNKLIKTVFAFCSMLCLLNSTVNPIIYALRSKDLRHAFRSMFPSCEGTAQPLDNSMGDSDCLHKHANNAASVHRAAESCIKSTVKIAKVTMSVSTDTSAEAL
In a further series the target is Endothelin ETB (Homo sapiens, UniProt P24530). Description: Eurofins Lead Profiling radioligand binding. The following applies: title: 30 μM.
Endothelin ETB, sequence (P24530 27-442): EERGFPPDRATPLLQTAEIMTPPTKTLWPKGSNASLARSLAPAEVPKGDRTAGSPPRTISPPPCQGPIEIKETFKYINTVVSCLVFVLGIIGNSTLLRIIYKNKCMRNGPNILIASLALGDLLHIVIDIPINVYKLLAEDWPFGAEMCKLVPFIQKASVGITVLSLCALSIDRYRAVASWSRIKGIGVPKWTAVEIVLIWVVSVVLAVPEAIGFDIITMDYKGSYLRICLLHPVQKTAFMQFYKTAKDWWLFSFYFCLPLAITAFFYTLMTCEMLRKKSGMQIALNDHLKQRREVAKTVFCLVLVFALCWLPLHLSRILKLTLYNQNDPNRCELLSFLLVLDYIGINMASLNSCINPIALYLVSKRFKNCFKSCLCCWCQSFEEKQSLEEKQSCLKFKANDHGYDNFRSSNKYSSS
Series [4] concerns the target Epidermal Growth Factor (EGF) (Homo sapiens, UniProt P00533). As to the kind of experiment: Eurofins Lead Profiling radioligand binding. The settings on record: title: 30 μM.
A further series deals with Melatonin MT1 (Homo sapiens, UniProt P48039). As to the kind of experiment: Eurofins Lead Profiling radioligand binding. The following applies: title: 30 μM.
Melatonin MT1, sequence (P48039 whole entry): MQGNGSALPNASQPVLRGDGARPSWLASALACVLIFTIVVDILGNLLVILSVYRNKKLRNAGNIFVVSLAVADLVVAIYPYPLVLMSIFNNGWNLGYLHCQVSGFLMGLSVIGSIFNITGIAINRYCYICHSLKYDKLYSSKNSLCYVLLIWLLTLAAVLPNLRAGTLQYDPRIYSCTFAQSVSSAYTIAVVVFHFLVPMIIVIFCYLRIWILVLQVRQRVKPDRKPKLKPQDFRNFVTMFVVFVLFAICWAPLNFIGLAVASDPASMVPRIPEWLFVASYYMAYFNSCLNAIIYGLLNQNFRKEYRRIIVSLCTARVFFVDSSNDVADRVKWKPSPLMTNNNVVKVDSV
Series [5] has as its target Nicotinic Acetylcholine α3β4 (Homo sapiens, UniProt P30926+P32297). Description: Eurofins Lead Profiling radioligand binding. The following applies: title: 30 μM.
In the next series the test system is Potassium Channel [SKCA]. Description: Eurofins Lead Profiling radioligand binding. The following applies: title: 30 μM. Also noted: species or system Rat.
The target in another series is Serotonin (5-HT3) (Homo sapiens, UniProt P46098). Description: Eurofins Lead Profiling radioligand binding. The settings on record: title: 30 μM.
Serotonin (5-HT3), sequence (P46098 24-478): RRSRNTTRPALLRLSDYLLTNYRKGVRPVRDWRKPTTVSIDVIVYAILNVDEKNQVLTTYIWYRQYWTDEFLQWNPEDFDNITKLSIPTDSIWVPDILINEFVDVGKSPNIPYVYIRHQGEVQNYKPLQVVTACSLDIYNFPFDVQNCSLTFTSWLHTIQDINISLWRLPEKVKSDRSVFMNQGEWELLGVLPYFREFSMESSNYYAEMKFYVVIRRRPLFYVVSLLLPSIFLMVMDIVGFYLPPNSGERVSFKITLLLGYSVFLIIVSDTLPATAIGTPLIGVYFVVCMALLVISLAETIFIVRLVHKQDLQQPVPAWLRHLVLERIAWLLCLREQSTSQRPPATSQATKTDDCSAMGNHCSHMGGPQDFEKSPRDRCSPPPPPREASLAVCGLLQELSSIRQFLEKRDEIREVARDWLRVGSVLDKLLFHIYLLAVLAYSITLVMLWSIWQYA
Setting [6] is: Sprague-Dawley, intravenous, rat cassette PK study.

Where “and” joins values, the source holds several entries; their conditions need not be identical. Equal values may be shown once. Entries after “also recorded” stand apart in the source; their conditions may differ. Read-outs that look alike come from different tables or passages of the source.

Bradykinin B1, sequence (P46663 whole entry): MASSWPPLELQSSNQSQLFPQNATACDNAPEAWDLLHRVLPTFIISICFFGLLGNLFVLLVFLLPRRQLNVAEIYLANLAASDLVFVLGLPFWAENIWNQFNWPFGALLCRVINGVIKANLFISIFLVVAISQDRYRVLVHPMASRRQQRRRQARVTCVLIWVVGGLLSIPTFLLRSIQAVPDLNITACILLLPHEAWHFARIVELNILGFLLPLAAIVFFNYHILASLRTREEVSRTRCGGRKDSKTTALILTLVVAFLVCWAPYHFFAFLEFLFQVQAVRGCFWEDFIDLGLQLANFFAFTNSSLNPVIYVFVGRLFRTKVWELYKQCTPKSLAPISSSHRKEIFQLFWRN
Nicotinic Acetylcholine α3β4, sequence (P32297 32-505): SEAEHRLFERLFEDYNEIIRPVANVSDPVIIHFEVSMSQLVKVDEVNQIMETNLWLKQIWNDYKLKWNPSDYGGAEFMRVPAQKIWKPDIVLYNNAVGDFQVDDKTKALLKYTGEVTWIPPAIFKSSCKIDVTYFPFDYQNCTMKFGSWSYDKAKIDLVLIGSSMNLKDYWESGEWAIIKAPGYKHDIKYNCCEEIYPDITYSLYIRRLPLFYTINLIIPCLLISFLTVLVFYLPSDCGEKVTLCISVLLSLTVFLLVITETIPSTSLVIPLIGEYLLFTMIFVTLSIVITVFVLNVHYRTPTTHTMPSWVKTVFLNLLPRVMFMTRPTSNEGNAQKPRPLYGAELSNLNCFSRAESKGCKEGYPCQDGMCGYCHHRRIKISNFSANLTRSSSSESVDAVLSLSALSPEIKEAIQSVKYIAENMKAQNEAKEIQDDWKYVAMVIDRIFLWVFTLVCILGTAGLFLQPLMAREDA
Nicotinic Acetylcholine α3β4, sequence (P30926 22-498): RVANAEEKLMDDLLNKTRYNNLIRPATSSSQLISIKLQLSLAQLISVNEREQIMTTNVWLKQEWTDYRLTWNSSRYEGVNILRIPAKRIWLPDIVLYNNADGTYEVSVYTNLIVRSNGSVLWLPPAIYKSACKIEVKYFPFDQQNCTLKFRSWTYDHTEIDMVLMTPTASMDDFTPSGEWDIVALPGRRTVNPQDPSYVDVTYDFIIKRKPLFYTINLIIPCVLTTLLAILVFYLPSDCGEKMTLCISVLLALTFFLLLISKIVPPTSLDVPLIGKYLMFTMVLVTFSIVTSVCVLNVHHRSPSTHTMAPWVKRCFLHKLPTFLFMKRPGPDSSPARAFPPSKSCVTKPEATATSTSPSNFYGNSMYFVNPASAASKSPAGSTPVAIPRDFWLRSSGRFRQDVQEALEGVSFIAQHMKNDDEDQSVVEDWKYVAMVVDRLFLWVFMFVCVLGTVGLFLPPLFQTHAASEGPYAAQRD
Adenosine A3, sequence (P0DMS8 whole entry): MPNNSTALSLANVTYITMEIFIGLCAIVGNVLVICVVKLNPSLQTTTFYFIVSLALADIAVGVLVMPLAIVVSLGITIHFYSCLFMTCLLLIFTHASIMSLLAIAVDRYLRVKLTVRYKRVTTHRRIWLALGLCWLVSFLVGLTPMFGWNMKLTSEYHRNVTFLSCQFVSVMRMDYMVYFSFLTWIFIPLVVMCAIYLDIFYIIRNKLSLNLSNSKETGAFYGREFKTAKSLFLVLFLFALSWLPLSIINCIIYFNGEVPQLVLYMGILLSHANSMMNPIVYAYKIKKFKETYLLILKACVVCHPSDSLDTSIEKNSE
Epidermal Growth Factor (EGF), sequence (P00533 25-1210): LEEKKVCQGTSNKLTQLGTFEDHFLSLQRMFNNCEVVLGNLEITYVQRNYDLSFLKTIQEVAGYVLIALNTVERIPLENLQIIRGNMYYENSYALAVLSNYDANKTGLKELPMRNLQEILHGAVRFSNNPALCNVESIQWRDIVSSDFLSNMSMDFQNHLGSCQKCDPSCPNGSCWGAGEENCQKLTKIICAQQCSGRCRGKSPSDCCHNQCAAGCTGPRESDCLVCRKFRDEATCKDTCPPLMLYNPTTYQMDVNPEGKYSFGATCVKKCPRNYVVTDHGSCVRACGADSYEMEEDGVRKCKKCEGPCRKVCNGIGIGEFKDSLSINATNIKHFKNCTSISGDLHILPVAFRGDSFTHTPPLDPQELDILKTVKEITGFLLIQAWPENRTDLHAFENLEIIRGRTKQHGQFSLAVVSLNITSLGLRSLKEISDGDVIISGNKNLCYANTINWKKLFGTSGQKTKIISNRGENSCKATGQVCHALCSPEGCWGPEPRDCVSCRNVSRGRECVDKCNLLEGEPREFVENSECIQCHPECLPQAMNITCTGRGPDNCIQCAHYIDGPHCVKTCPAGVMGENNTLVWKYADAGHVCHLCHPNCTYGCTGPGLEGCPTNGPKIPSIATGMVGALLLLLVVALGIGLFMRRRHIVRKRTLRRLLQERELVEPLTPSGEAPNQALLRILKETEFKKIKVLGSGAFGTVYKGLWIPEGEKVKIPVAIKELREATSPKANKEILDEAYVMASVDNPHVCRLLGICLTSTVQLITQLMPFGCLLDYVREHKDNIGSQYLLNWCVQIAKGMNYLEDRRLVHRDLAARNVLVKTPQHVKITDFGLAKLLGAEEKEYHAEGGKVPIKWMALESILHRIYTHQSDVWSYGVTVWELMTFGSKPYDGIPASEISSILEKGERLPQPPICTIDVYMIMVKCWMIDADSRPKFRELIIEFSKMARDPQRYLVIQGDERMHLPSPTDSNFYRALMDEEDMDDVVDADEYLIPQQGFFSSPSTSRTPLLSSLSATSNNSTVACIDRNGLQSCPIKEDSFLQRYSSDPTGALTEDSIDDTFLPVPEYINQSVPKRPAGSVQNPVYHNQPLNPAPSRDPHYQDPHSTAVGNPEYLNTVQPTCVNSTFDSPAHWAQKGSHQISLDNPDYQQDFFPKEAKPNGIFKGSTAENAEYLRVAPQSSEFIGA

The EC50 is the concentration needed to bring the measured effect to its halfway point. As a reminder, the Emax is the size of the effect at its maximum, as opposed to the concentration needed. On to `CS(=O)(=O)Nc1ccc(C(=O)NCc2ccc(Cl)cc2Cl)cc1` [Compound 13], for which, in “rat PK study” (rat PK profile), the clearance was 0.21 L/h/kg, the Vd turned out to be 0.787 L/kg and the half-life is 3 h. At TREK-1, this compound showed an EC50 of 8.1 µM and an Emax of 85%.

With `O=C(NCc1ccc(Br)cc1Cl)c1ccc(-c2ncn[nH]2)cc1` [Compound 14a], the fraction unbound at 6 h, 5 µM in series [1] was determined as 0.022. Besides, in the series “rat PK study” (setting [6]), the clearance stood at 1.23 L/h/kg, the Vd stood at 1.5 L/kg and the half-life is 1.1 h. Besides, at TREK-1, the EC50 stood at 1.6 µM and the Emax was determined as 93%.

Regarding `Cc1cc(OC(F)(F)F)ccc1CNC(=O)c1ccc2ncnn2c1` [Compound 19a], in series [1], the fraction unbound at 6 h, 5 µM was 0.1. On TREK-1, this compound registered an EC50 of 3.8 µM and an Emax of 99%.

In general, inhibition refers to the drop in the measured response relative to a control, in per cent. As a reminder, the % Inhibition is the drop in the measured response relative to a control, in per cent. Consider `O=C(NCc1ccc(OC(F)(F)F)cc1F)c1ccc2ncnn2c1` [Compound 19b], for which, in [1], the fraction unbound at 6 h, 5 µM is 0.24. For the same compound, the fraction unbound at 6 h, 1 µM in [2] amounted to 0.28. For the same compound, the “selectivity against TASK-1 over TREK-2” value in the series with TASK-1 was more than 150 fold. For the same compound, in the series with TASK-2, the “selectivity against TASK-2 over TREK-2” value was more than 150 fold. The “selectivity against TASK-3 over TREK-2” value in the series on TASK-3 is more than 150 fold. Moreover, the “selectivity against TRAAK over TREK-2” value with TRAAK is more than 150 fold. In addition, the “selectivity against TWIK-2 over TREK-2” value with TWIK-2 is more than 150 fold. Besides, the “selectivity against TRESK over TREK-2” value on TRESK was found to be 31 fold. For the same compound, the “activity at TRESK” value at TRESK is listed as “micromolar inhibitor activity”. Further, the inhibition was 21% at Adenosine A3; -12% at Bradykinin B1; 17% at Cannabinoid CB1; 2% in [4]; 17% at Melatonin MT1; -17% in [5]. For the same compound, the inhibition on Serotonin (5-HT3) was 4%. For the same compound, the “% Inhibition at 10 µM” value was determined as 2% in [3] and 4% in the series on Potassium Channel [SKCA]. For the same compound, the inhibition at 10 µM on Endothelin ETB came out at 4%. Besides, at TREK-1, the midpoint of the response, the EC50, lay at 2.8 µM. The compound also showed an Emax on TREK-1 of 95%.

`O=C(NCc1ccc(OC(F)(F)F)cc1Cl)c1ccc2nncn2c1` [Compound 20]: the “selectivity against TASK-1 over TREK-1/2” value in the series with TASK-1 is > 91 fold and > 85 fold. For the same compound, in the series on TASK-2, the “selectivity against TASK-2 over TREK-1/2” value was > 91 fold and > 85 fold. Moreover, in the series on TASK-3, the “selectivity against TASK-3 over TREK-1/2” value is > 91 fold and > 85 fold. Also, in the series on TRAAK, the “selectivity against TRAAK over TREK-1” value was 85 fold and > 85 fold. Further, the “selectivity against TWIK-2 over TREK-1/2” value in the series with TWIK-2 is > 91 fold and > 85 fold. The “activity at TRESK” value at TRESK was “micromolar inhibitor activity; also recorded: micromolar inhibitory activity”.
